Experimental data reported in patent publication EP0326331B1, “Substituted quinolines and cinnolines” (Dow AgroSciences LLC, priority 1988, dated 1989).

Key:
Type in all cases: in vivo
[1] = tested on: Pseudoperonospora cubensis (downy mildew); assay: Test 1 greenhouse foliar spray screen, downy mildew on squash; details: disease control rating, foliar spray on squash, 400 ppm (+++ at 100 ppm)
[2] = tested on: Pyricularia oryzae (rice blast); assay: whole plant or invertebrate; details: for RICE BLAST: disease control rating, foliar spray on rice, 400 ppm (+++ at 100 ppm)
[3] = tested on: Botrytis cinerea (gray mold); assay: Test 1 greenhouse foliar spray screen, gray mold on grape berries; details: disease control rating, spray on grape berries, 400 ppm (+++ at 100 ppm)
corn rootworm = assay: Mite/insect screen, CRW; details: percent mortality; for mortality at 12 ppm / mortality at 24 ppm: read-out: CRW RESULTS %; for mortality at 24 ppm: CRW RATE 24.00 PPM
Procedure, shortened: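 Corn rootworm mortality (%) was evaluated following standard exposure times. Test material was emulsified by dissolution in acetone/alcohol (1:1) containing sulfonate/nonionic emulsifier blends TOXIMUL R (23 g/L) and TOXIMUL S (13 g/L), and water-diluted to the indicated doses.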

[4] = tested on: Septoria tritici (leaf blotch); assay: Test 1 greenhouse foliar spray screen, leaf blotch on wheat; details: disease control rating, foliar spray on wheat, 400 ppm (+++ at 100 ppm)
[5] = tested on: Erysiphe graminis tritici (powdery mildew); assay: Test 1 greenhouse foliar spray screen, powdery mildew on wheat; details: disease control rating, foliar spray on wheat, 400 ppm (+++ at 100 ppm)
[6] = tested on: Venturia inaequalis (apple scab); assay: Test 1 greenhouse foliar spray screen, apple scab on apple seedling; details: disease control rating, foliar spray on apple seedling, 400 ppm (+++ at 100 ppm)
[7] = tested on: Puccinia recondita tritici (leaf rust); assay: Test 1 greenhouse foliar spray screen, leaf rust on wheat; details: disease control rating, foliar spray on wheat, 400 ppm (+++ at 100 ppm)
[8] = tested on: southern armyworm (Spodopetra eridania Cramer); assay: Mite/insect screen, SAW; details: percent mortality, SAW; for mortality at 200 ppm / mortality at 400 ppm: Spodoptera eridania, read-out: SAW RESULTS %; for mortality at 400 ppm: SM & MA RATE 400 PPM
Procedure, shortened: (§1)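 Percent mortality was scored after standard exposure periods, following spraying of leaves to runoff (both surfaces, 10 psi, 1 h drying) with water dilutions of compound in emulsifier-containing acetone/alcohol (50:50). Armyworms received excised treated leaves in dishes.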

[9] = tested on: melon aphids (Aphis gossypii Glover); assay: Mite/insect screen, MA; details: percent mortality, SAW; for mortality at 200 ppm / mortality at 400 ppm: Aphis gossypii, read-out: MA RESULTS %; for mortality at 400 ppm: SM & MA RATE 400 PPM
Procedure, shortened: as §1

[10] = tested on: Twospotted spider mites (Tetranychus urticae Koch); assay: Mite/insect screen, SM; details: for mortality at 200 ppm / mortality at 400 ppm: Tetranychus urticae, read-out: SM RESULTS %; for mortality at 400 ppm: SM & MA RATE 400 PPM
Procedure, shortened: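 Read-out: percent mortality after standard exposure periods. Test solutions were water dilutions of compound dissolved in acetone/alcohol (50:50) with emulsifier blends; leaves were sprayed to runoff on both surfaces and air-dried for one hour before exposure.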

[11] = tested on: Cercospora beticola (leaf spot); assay: Test 1 greenhouse foliar spray screen, leaf spot on sugar beet; details: disease control rating, foliar spray on sugar beet, 400 ppm (+++ at 100 ppm)
[12] = percent mortality, SAW, SM & MA RATE 200 PPM
[13] = summary statement in the description

| Structure (SMILES) | DOWN MDEW [1] | RICE BLAST [2] | GRAY MOLD [3] | mortality at 12 ppm (corn rootworm; CRW RATE 12.00 PPM) [%] | mortality at 24 ppm (corn rootworm) [%] | LEAF BLOT [4] | POWD MDEW [5] | APPL SCAB [6] | LEAF RUST [7] | mortality at 200 ppm ([8]; SM & MA RATE 200 PPM) [%] | mortality at 400 ppm [8] [%] | mortality at 200 ppm ([9]; SM & MA RATE 200 PPM) [%] | mortality at 400 ppm [9] [%] | mortality at 200 ppm [10, 12] [%] | mortality at 400 ppm ([10]; percent mortality, SAW) [%] | LEAF SPOT [11] | also measured |
| --- | --- | --- | --- | --- | --- | --- | --- | --- | --- | --- | --- | --- | --- | --- | --- | --- | --- |
| FC(F)(F)c1cccc(CCNc2ccnc3cc(Cl)ccc23)c1 [Example 107, 7-chloro-N-[2-[3-(trifluoromethyl)phenyl]ethyl]-4-quinolinamine] | +++ (90-100% control at 100 ppm) | + (20-89% control at 400 ppm) | - (0-19% control at 400 ppm) | 0 | 0 | - (0-19% control at 400 ppm) | ++ (90-100% control at 400 ppm) | - (0-19% control at 400 ppm) | + (20-89% control at 400 ppm) | 0 | 0 | 0 | 0 | 0 | 0 | - (0-19% control at 400 ppm) |  |
| Fc1cccc2c(NCCc3cccc(Br)c3)ccnc12 [Example 108, N-[2-(3-bromophenyl)ethyl]-8-fluoro-4-quinolinamine] | + (20-89% control at 400 ppm) | + (20-89% control at 400 ppm) | - (0-19% control at 400 ppm) | 0 |  | +++ (90-100% control at 100 ppm) | + (20-89% control at 400 ppm) | - (0-19% control at 400 ppm) | ++ (90-100% control at 400 ppm) | 0 |  | 0 |  | 0 |  | - (0-19% control at 400 ppm) |  |
| CC(C)(C)c1ccc(CCNc2ccnc3c(F)cccc23)cc1 [Example 111, N-[2-[4-(t-butyl)phenyl]ethyl]--8-fluoro-4-quinolinamine] | +++ (90-100% control at 100 ppm) | ++ (90-100% control at 400 ppm) | - (0-19% control at 400 ppm) | 0 | 0 | +++ (90-100% control at 100 ppm) | + (20-89% control at 400 ppm) | - (0-19% control at 400 ppm) | +++ (90-100% control at 100 ppm) | 20 | 20 | 0 | 0 | 90 | 80 | - (0-19% control at 400 ppm) | activity against rice blast [2, 13]: particularly excellent activity; activity as miticides [10, 13]: particularly excellent activity |
| Fc1cccc2c(NCCc3ccc(-c4ccccc4)cc3)ccnc12 [Example 113, N-[2-(1,1-biphenyl)-4-yl-ethyl]-8-fluoro-4-quinolinamine] | +++ (90-100% control at 100 ppm) | +++ (90-100% control at 100 ppm) | - (0-19% control at 400 ppm) | 0 | 100 | +++ (90-100% control at 100 ppm) | + (20-89% control at 400 ppm) | - (0-19% control at 400 ppm) | +++ (90-100% control at 100 ppm) | 100 | 70 | 0 | 0 | 40 | 0 | - (0-19% control at 400 ppm) |  |
| Fc1cccc2c(NCCc3ccccc3)cc(Cl)nc12 [Example 116, 2-chloro-8-fluoro-N-(2-phenylethyl)-4-quinolinamine] | +++ (90-100% control at 100 ppm) | + (20-89% control at 400 ppm) | - (0-19% control at 400 ppm) | 0 |  | - (0-19% control at 400 ppm) | - (0-19% control at 400 ppm) | + (20-89% control at 400 ppm) | +++ (90-100% control at 100 ppm) | 0 |  | 0 |  | 0 |  | + (20-89% control at 400 ppm) |  |
| O=[N+]([O-])c1ccc(CCNc2ccnc3c(F)cccc23)cc1 [Example 117, 8-fluoro-N-[2-(4-nitrophenyl)ethyl]-4-quinolinamine] | +++ (90-100% control at 100 ppm) | + (20-89% control at 400 ppm) | - (0-19% control at 400 ppm) | 0 |  | - (0-19% control at 400 ppm) | + (20-89% control at 400 ppm) | - (0-19% control at 400 ppm) | + (20-89% control at 400 ppm) | 0 |  | 0 |  | 0 |  | + (20-89% control at 400 ppm) | CRW RESULTS % (corn rootworm; CRW RATE 12.00 PPM): 0%; SAW RESULTS % ([8]; SM & MA RATE 200 PPM): 0%; MA RESULTS % ([9]; SM & MA RATE 200 PPM): 0%; SM RESULTS % [10, 12]: 0% |
| Fc1cccc2c(NCCc3c(Cl)cccc3Cl)ccnc12 [Example 118, N-[2-(2,6-dichlorophenyl)ethyl]-8-fluoro-4-quinolinamine] | - (0-19% control at 400 ppm) | + (20-89% control at 400 ppm) | - (0-19% control at 400 ppm) | 0 |  | - (0-19% control at 400 ppm) | - (0-19% control at 400 ppm) | - (0-19% control at 400 ppm) | - (0-19% control at 400 ppm) | 0 |  | 0 |  | 0 |  | - (0-19% control at 400 ppm) |  |
| COc1cc(CCNc2ccnc3c(F)cccc23)cc(OC)c1 [Example 119, N-[2-(3,5-dimethoxyphenyl)ethyl]-8-fluoro-4-quinolinamine] | ++ (90-100% control at 400 ppm) | + (20-89% control at 400 ppm) | - (0-19% control at 400 ppm) | 0 |  | + (20-89% control at 400 ppm) | + (20-89% control at 400 ppm) | + (20-89% control at 400 ppm) | + (20-89% control at 400 ppm) | 0 |  | 0 |  | 0 |  | - (0-19% control at 400 ppm) |  |
